Experimental data from US20030232986A1, “Inhibitors of caspases” (Vertex Pharmaceuticals Incorporated, priority 1998, published 2003).
pIC50, pKi: −log10 of the molar value. Where a SMILES comes first, the peptide text is derived from it. [ ]: non-standard residue; d: D form. The star is where a group is joined. Aze = O=C(O)[C@@H]1CCN1; Bz = O=C(c1ccccc1)*

How the values were obtained:
Caspase-1 = target: T1, Caspase-1 (Homo sapiens, UniProt P29466); test: Caspase-1 enzyme inhibition (Ki); format: biochemical; settings: substrate Suc-YVAD-pNA 80 μM, 37° C., pH 7.5
T1 sequence (P29466 120-297 limits assumed): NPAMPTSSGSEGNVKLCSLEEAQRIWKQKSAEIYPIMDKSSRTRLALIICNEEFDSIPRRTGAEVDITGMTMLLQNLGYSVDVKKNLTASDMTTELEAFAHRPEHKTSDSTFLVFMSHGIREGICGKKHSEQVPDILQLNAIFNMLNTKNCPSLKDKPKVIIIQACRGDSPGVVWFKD
T1 sequence (P29466 317-404 limits assumed): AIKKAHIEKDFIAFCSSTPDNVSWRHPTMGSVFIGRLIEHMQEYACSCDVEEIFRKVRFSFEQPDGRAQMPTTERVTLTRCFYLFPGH
Method in brief: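 Ki obtained by fitting rate versus inhibitor concentration to the Morrison tight-binding equation for competitive inhibitors, with pNA release read at 405 nm at 37 °C. Substrate Suc-YVAD-pNA (80 μM final) added after 15 min enzyme–inhibitor preincubation in Tris pH 7.5 buffer with DTT and CHAPS.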

[1] = Single pass perfusion in rat: GI wall and liver metabolism, biliary excretion; format: in vitro ADME; settings: for f (g) Xf (h): GI wall metabolism f(g) x liver metabolism f(h)
Method: Single pass perfusion studies in rat were performed to assess gastrointestinal (GI) wall metabolism (f(g)), liver metabolism (f(h)), and biliary excretion. The method used has been described in Pang, C. S., J. Pharmacol. Exp. Therapeutics, 333, pp. 788-798 (1984).

[2] = system: Human whole blood, IL-1β production; test: Whole blood assay for IL-1β production; format: cell-based; settings: LPS-stimulated whole blood, IL-1β by ELISA
Method in brief: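 LPS-stimulated (5.0 ng/ml final) human whole blood incubated with test compound in saline (or plasma/PBS-5% DMSO for hydrophobic compounds) at 30° C for 16-18 hr. Plasma IL-1β then measured by ELISA at 1:200 dilution, against no-LPS, no-inhibitor and vehicle controls.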

[3] = system: Human Peripheral Blood Mononuclear Cells (PBMC), mature IL-1β; test: PBMC cell assay: IL-1β assay with human peripheral blood mononuclear cells; format: cell-based; settings: LPS-stimulated human PBMC, mature IL-1β in supernatant by ELISA
Method in brief: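 Donor PBMC (suspension at 6×10^6 cells/ml) or adherent-enriched monocytes were stimulated with 5 ng/ml LPS (final) alongside 5–6 compound dilutions bracketing the ICE Ki, at 0.1% DMSO final, for 16–18 hr at 37° C, 5% CO2. Mature IL-1β in supernatants was measured by ELISA; IC50 was calculated relative to LPS-only controls.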

Structure (SMILES) | pKi (Caspase-1) | Biliary Excretion [1] | f (g) Xf (h) [1] | pIC50 [2] | pIC50 [3]
COc1cc(N)c(Cl)cc1C(=O)N[C@@H](C)C(=O)N1CCC[C@H]1C(=O)N[C@H](C=O)CC(=O)O [Example 7ac] | 6.00 to 8.00 | C (Category “C” indicates >10%) | C (Category “C” indicates 0.5-0.75) | 5.12 to 5.60 | –
COC1CC(C(=O)NC(C=O)CC(=O)O)N(C(=O)C(C)NC(=O)c2ccc(N)c(Cl)c2)C1 (stereo not shown) [Example 23i, 3-({1-[2-(4-amino-3-chloro-benzoylamino)-propionyl]-4-methoxy-pyrrolidine-2-carbonyl}-amino)-4-oxo-butyric acid] | 6.00 to 8.00 | – | – | 5.12 to 5.60 | > 6.30
CC(C)[C@H](NC(=O)c1ccccc1)C(=O)N1CC[C@H]1C(=O)N[C@H](C=O)CC(=O)O [Example 24d] (Bz-Val-[Aze]-Asp-aldehyde) | 6.00 to 8.00 | – | – | 5.12 to 5.60 | 6.00 to 6.30
C[C@H](NC(=O)c1nccc2ccccc12)C(=O)N1CCCC[C@H]1C(=O)N[C@H](C=O)CC(=O)O [Example 25a] | > 8.00 | – | – | 5.12 to 5.60 | > 6.30
CC(C)[C@H](NC(=O)c1nccc2ccccc12)C(=O)N1CCCC[C@H]1C(=O)N[C@H](C=O)CC(=O)O [Example 25b] | > 8.00 | – | – | 5.12 to 5.60 | 6.00 to 6.30
CC(C)(C)[C@H](NC(=O)c1nccc2ccccc12)C(=O)N1CCCC[C@H]1C(=O)N[C@H](C=O)CC(=O)O [Example 25c] | > 8.00 | – | – | 5.12 to 5.60 | 6.00 to 6.30
C[C@H](NC(=O)c1ccc(N)c(Cl)c1)C(=O)N1CCCC[C@H]1C(=O)N[C@H](C=O)CC(=O)O [Example 25d] | > 8.00 | C (Category “C” indicates >10%) | C (Category “C” indicates 0.5-0.75) | > 5.60 | –
CC(=O)Nc1ccc(C(=O)N[C@@H](C)C(=O)N2CCCC[C@H]2C(=O)N[C@H](C=O)CC(=O)O)cc1Cl [Example 25e] | > 8.00 | B (Category “B” indicates 5-10%) | C (Category “C” indicates 0.5-0.75) | < 5.12 | –
COc1ccc(C(=O)N[C@H](C(=O)N2C3CCCCC3C[C@H]2C(=O)N[C@H](C=O)CC(=O)O)C(C)C)cc1 (stereo partly shown) [Example 26d] | > 8.00 | – | – | > 5.60 | 6.00 to 6.30
CC(C)[C@H](NC(=O)c1nccc2ccccc12)C(=O)N1C[C@H](c2ccccc2)C[C@H]1C(=O)N[C@H](C=O)CC(=O)O [Example 26h] | > 8.00 | – | – | > 5.60 | > 6.30
COc1cc(N)c(Cl)cc1C(=O)N[C@@H](C)C(=O)N1CC(F)(F)C[C@H]1C(=O)N[C@H](C=O)CC(=O)O [Example 27b] | 6.00 to 8.00 | A (category “A” indicates <5%) | B (Category “B” indicates 0.25-0.49) | > 5.60 | –
CC(C)[C@H](NC(=O)c1nccc2ccccc12)C(=O)N1CSC(C)(C)[C@H]1C(=O)N[C@H](C=O)CC(=O)O [Example 28c] | > 8.00 | – | – | < 5.12 | 6.00 to 6.30
C[C@H](NC(=O)c1nccc2ccccc12)C(=O)N[C@@H](C)C(=O)N[C@H](C=O)CC(=O)O [Example 29c] | > 8.00 | – | – | > 5.60 | 6.00 to 6.30
C[C@H](NC(=O)c1cccc2ccccc12)C(=O)N[C@@H](C)C(=O)N[C@H](C=O)CC(=O)O [Example 29d] | > 8.00 | – | – | > 5.60 | 6.00 to 6.30
Cc1cc(C(=O)N[C@H](C(=O)N[C@@H](C)C(=O)N[C@H](C=O)CC(=O)O)C(C)C)cc(C)c1O [Example 29e] | > 8.00 | – | – | > 5.60 | > 6.30
Cc1cc(C(=O)N[C@@H](C)C(=O)N[C@@H](C)C(=O)N[C@H](C=O)CC(=O)O)cc(C)c1O [Example 29h] | > 8.00 | – | – | > 5.60 | > 6.30
CC(C)[C@H](NC(=O)c1cc2ccccc2[nH]1)C(=O)N[C@@H](C)C(=O)N[C@H](C=O)CC(=O)O [Example 29i] | > 8.00 | – | – | > 5.60 | > 6.30
C[C@H](NC(=O)[C@@H](NC(=O)c1cc2ccccc2[nH]1)C(C)(C)C)C(=O)N[C@H](C=O)CC(=O)O [Example 29j] | > 8.00 | – | – | > 5.60 | 6.00 to 6.30
C[C@H](NC(=O)[C@@H](NC(=O)c1cccc2ccccc12)C(C)(C)C)C(=O)N[C@H](C=O)CC(=O)O [Example 29k] | > 8.00 | – | – | > 5.60 | > 6.30
CC(C)(C)[C@H](NC(=O)c1ccc(N)c(Cl)c1)C(=O)N1CCCC1C(=O)N[C@H](C=O)CC(=O)O (stereo partly shown) [Example 73, 3-({-[2-(4-Amino-3-chloro-benzoylamino)-3,3-dimethyl-butyryl]-pyrrolidine-2-carbonyl}-amino)-4-oxo-butyric acid] | > 8.00 | – | – | > 5.60 | 6.00 to 6.30

Further lines, with some results ahead:

pKi (Caspase-1) | Biliary Excretion [1] | f (g) Xf (h) [1] | pIC50 [2] | Structure (SMILES) | pIC50 [3]
6.00 to 8.00 | – | – | > 5.60 | CC(C)[C@H](NC(=O)c1ccc(O)cc1)C(=O)N[C@@H](C)C(=O)N[C@H](C=O)CC(=O)O [Example 29l] | 6.00 to 6.30
6.00 to 8.00 | A (category “A” indicates <5%) | C (Category “C” indicates 0.5-0.75) | 5.12 to 5.60 | COc1ccc(C(=O)N[C@H](C(=O)N[C@@H](C)C(=O)N[C@H](C=O)CC(=O)O)C(C)C)cc1 [Example 29n] | –
6.00 to 8.00 | A (category “A” indicates <5%) | C (Category “C” indicates 0.5-0.75) | > 5.60 | COc1c(C)cc(C(=O)N[C@@H](C)C(=O)N[C@@H](C)C(=O)N[C@H](C=O)CC(=O)O)cc1C [Example 29o] | –
> 8.00 | C (Category “C” indicates >10%) | B (Category “B” indicates 0.25-0.49) | > 5.60 | COc1c(C)cc(C(=O)N[C@H](C(=O)N[C@@H](C)C(=O)N[C@H](C=O)CC(=O)O)C(C)C)cc1C [Example 29p] | –
6.00 to 8.00 | – | – | 5.12 to 5.60 | CC(=O)NC(C(=O)N1N=C(C(C)(C)C)SC1C(=O)NC(C=O)CC(=O)O)C(C)C (stereo not shown) [Example 42, 3-{[3-(2-acetylamino-3-methyl-butyryl)-5-tert-butyl-2,3-dihydro-[1,3,4]thiadiazole-2-carbonyl]-amino)-4-oxo-butyric acid] | < 5.70
> 8.00 | – | – | > 5.60 | CC(C)C(NC(=O)c1ccc(N)c(Cl)c1)C(=O)N1CCCC1C(=O)NC(C=O)CC(=O)O (stereo not shown) [Example 61, 3-((1-[2-(4-Amino-3-chloro-benzoylamino)-3-methyl-butyryl]-pyrrolidine-2-carbonyl}-amino)-4-oxo-butyric acid] | 6.00 to 6.30
6.00 to 8.00 | – | – | 5.12 to 5.60 | C[C@H](NC(=O)c1ccccn1)C(=O)N1CCC[C@H]1C(=O)N[C@H](C=O)CC(=O)O [Example 122e] | 5.70 to 6.00
> 8.00 | – | – | > 5.60 | C[C@H](NC(=O)c1cc(Cl)c(N)c(Cl)c1)C(=O)N1CCC[C@H]1C(=O)N[C@H](C=O)CC(=O)O [Example 122g, 3-({1-[2-(4-Amino-3,5-dichloro-benzoylamino)-propionyl]-pyrrolidine-2-carbonyl}-amino)-4-oxo-butyric acid] | 6.00 to 6.30
6.00 to 8.00 | – | – | > 5.60 | CC(C)Oc1cccc(C(=O)N[C@@H](C)C(=O)N2CCC[C@H]2C(=O)N[C@H](C=O)CC(=O)O)c1 [Example 122h, 3-({1-[2-(3-Isopropoxy-benzoylamino)-propionyl]-pyrrolidine-2-carbonyl}-amino)-4-oxo-butyric acid] | 5.70 to 6.00
> 8.00 | – | – | > 5.60 | COc1ccc(C(=O)N[C@@H](C)C(=O)N2CCC[C@H]2C(=O)N[C@H](C=O)CC(=O)O)cc1OCc1ccccc1 [Example 122i, 3-({1-[2-(3-benzyloxy-4-methoxy-benzoylamino)-propionyl]-pyrrolidine-2-carbonyl}-amino)-4-oxo-butyric acid] | 5.70 to 6.00
6.00 to 8.00 | – | – | 5.12 to 5.60 | C[C@H](NC(=O)c1cnc2ccccc2n1)C(=O)N1CCC[C@H]1C(=O)N[C@H](C=O)CC(=O)O [Example 122j, 4-Oxo-3-[(1-{2-[(quinoxaline-2-carbonyl)-amino]-propionyl}-pyrrolidine-2-carbonyl) -amino]-butyric acid] | < 5.70
6.00 to 8.00 | – | – | > 5.60 | C[C@H](NC(=O)c1ccc(N)c(C(F)(F)F)c1)C(=O)N1CCC[C@H]1C(=O)N[C@H](C=O)CC(=O)O [Example 122l, 3-({1-[2-(4-Amino-3-trifluoromethyl-benzoylamino)-propionyl]-pyrrolidine-2-carbonyl}-amino)-4-oxo-butyric acid] | 6.00 to 6.30
